In patent publication US11739074B2, “Ras inhibitors” (Revolution Medicines, Inc., priority 2019, dated 2023):
Where two headings read alike, the source gives them in different places.

Columns and labels:
NRAS WT = biological target: T1, NRAS WT (Homo sapiens, UniProt P01111+P62937); assay: Ras-Raf disruption/FRET/MOA assay, NRAS WT; type: biochemical
T1 construct: His6
Excerpt: (§1) Disruption of B-Raf Ras-Binding Domain (BRAF^RBD) Interaction with K-Ras by Compounds of the Invention (Also Called a FRET Assay or an MOA Assay)
(§2) Note—The following protocol describes a procedure for monitoring disruption of K-Ras G12C (GMP-PNP) binding to BRAF^RBD by a compound of the invention. This protocol may also be executed substituting other Ras proteins or nucleotides, such as K-Ras G12D and K-Ras G13D.
(§3) The purpose of this biochemical assay was to measure the ability of test compounds to facilitate ternary complex formation between a nucleotide-loaded K-Ras isoform and Cyclophilin A; the resulting ternary complex disrupts binding to a BRAF^RBD construct, inhibiting K-Ras signaling through a RAF effector.
(§4) In assay buffer containing 25 mM HEPES pH 7.3, 0.002% Tween20, 0.1% BSA, 100 mM NaCl and 5 mM MgCl2, tagless Cyclophilin A, His6-K-Ras-GMPPNP, and GST-BRAF^RBD were combined in a 384-well assay plate at final concentrations of 25 μM, 12.5 nM, and 50 nM, respectively. Compound was present in plate wells as a 10-point 3-fold dilution series starting at a final concentration of 30 μM. After incubation at 25° C. for 3 hours, a mixture of anti-His Eu-W1024 and anti-GST allophycocyanin was then added to assay sample wells at final concentrations of 10 nM and 50 nM, respectively, and the reaction incubated for an additional 1.5 hours. […] Compounds that facilitate disruption of a K-Ras:RAF complex were identified as those eliciting a decrease in the TR-FRET ratio relative to DMSO control wells.

NCI-H358 (K-Ras G12C) = assay: CellTiter-Glo cell viability assay, H358; type: cell-based; details: Homo sapiens, NCI-H358, 120 h
How it was run: (§5)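 Test compounds were dispensed directly onto seeded cells, and on day 5 plates were brought to room temperature for about 30 minutes before CellTiter-Glo luminescence was read. Signals were expressed as percent of the mean DMSO control and fitted with a four-parameter logistic model.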

KRAS G12V = KRAS G12V (Homo sapiens, UniProt P01116+P62937, G12V); assay: Ras-Raf disruption/FRET/MOA assay, KRAS G12V; type: biochemical
How it was run: (§6)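 Compounds promote a Cyclophilin A (25 μM) ternary complex with His6-KRAS-GMPPNP, which blocks binding of GST-BRAF^RBD (50 nM). Titration runs to a 30 μM top concentration, and loss of RAF binding is detected by TR-FRET.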

AsPC-1 (K-Ras G12D) [1] = assay: CellTiter-Glo cell viability assay, AsPC-1; type: cell-based; details: Homo sapiens, ASPC1, 120 h
How it was run: as §5

NRAS Q61K = biological target: T2, NRAS Q61K (Homo sapiens, UniProt P01111+P62937, Q61K); assay: Ras-Raf disruption/FRET/MOA assay, NRAS Q61K; type: biochemical
T2 construct: His6
Excerpt: as §1, §2, §3, §4

KRAS G12S = KRAS G12S (Homo sapiens, UniProt P01116+P62937, G12S); assay: Ras-Raf disruption/FRET/MOA assay, KRAS G12S; type: biochemical
How it was run: as §6

NRAS G12C = biological target: T3, NRAS G12C (Homo sapiens, UniProt P01111+P62937, G12C); assay: Ras-Raf disruption/FRET/MOA assay, NRAS G12C; type: biochemical
T3 construct: His6
How it was run: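 Disruption of Ras:RAF binding was read as a drop in TR-FRET ratio versus DMSO controls. The buffer was 25 mM HEPES pH 7.3, 0.002% Tween20, 0.1% BSA, 100 mM NaCl and 5 mM MgCl2. Compounds were tested as a 10-point 3-fold dilution series from 30 μM. Detection used 10 nM anti-His Eu-W1024 and 50 nM anti-GST allophycocyanin.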

KRAS G12D = KRAS G12D (Homo sapiens, UniProt P01116+P62937, G12D); assay: Ras-Raf disruption/FRET/MOA assay, KRAS G12D; type: biochemical
How it was run: as §6

KRAS WT = KRAS WT (Homo sapiens, UniProt P01116+P62937); assay: Ras-Raf disruption/FRET/MOA assay, KRAS WT; type: biochemical
How it was run: as §6

KRAS Q61H = KRAS Q61H (Homo sapiens, UniProt P01116+P62937, Q61H); assay: Ras-Raf disruption/FRET/MOA assay, KRAS Q61H; type: biochemical
Excerpt: as §1, §2, §3, §4

KRAS G12C = KRAS G12C (Homo sapiens, UniProt P01116+P62937, G12C); assay: Ras-Raf disruption/FRET/MOA assay, KRAS G12C; type: biochemical
How it was run: as §6

NRAS Q61R = biological target: T4, NRAS Q61R (Homo sapiens, UniProt P01111+P62937, Q61R); assay: Ras-Raf disruption/FRET/MOA assay, NRAS Q61R; type: biochemical
T4 construct: His6
Excerpt: as §1, §2, §3, §4

KRAS G13D = KRAS G13D (Homo sapiens, UniProt P01116+P62937, G13D); assay: Ras-Raf disruption/FRET/MOA assay, KRAS G13D; type: biochemical
How it was run: as §6

KRAS G13C = KRAS G13C (Homo sapiens, UniProt P01116+P62937, G13C); assay: Ras-Raf disruption/FRET/MOA assay, KRAS G13C; type: biochemical
How it was run: as §6

AsPC-1 (K-Ras G12D) [2] = assay: Potency assay: pERK in AsPC-1 cells; type: cell-based; details: Homo sapiens
[3] = NRAS WT, read-out: NRAS WT FRET data IC50
[4] = NCI-H358, K-Ras G12C, 5-day treatment, read-out: H358 Cell Viability IC50
[5] = disruption of BRAF RBD binding, with Cyclophilin A, read-out: KRAS G12V FRET IC50
[6] = AsPC-1, K-Ras G12D, 5-day treatment, read-out: AsPC-1 Cell Viability IC50
[7] = NRAS Q61K, read-out: NRAS Q61K FRET data IC50
[8] = disruption of BRAF RBD binding, with Cyclophilin A, read-out: KRAS G12S FRET IC50
[9] = NRAS G12C, read-out: NRAS G12C FRET data IC50
[10] = disruption of BRAF RBD binding, with Cyclophilin A, read-out: KRAS G12D FRET IC50
[11] = disruption of BRAF RBD binding, with Cyclophilin A, read-out: KRAS WT FRET IC50
[12] = KRAS Q61H, read-out: KRAS Q61H FRET data IC50
[13] = disruption of BRAF RBD binding, with Cyclophilin A, read-out: KRAS G12C FRET IC50
[14] = NRAS Q61R, read-out: NRAS Q61R FRET data IC50
[15] = disruption of BRAF RBD binding, with Cyclophilin A, read-out: KRAS G13D FRET IC50
[16] = disruption of BRAF RBD binding, with Cyclophilin A, read-out: KRAS G13C FRET IC50
[17] = ASPC1, AsPC-1 cells, K-Ras G12D, read-out: pERK EC50 (AsPC-1 KRAS G12D)

T4 sequence (P01111 whole entry Q61R): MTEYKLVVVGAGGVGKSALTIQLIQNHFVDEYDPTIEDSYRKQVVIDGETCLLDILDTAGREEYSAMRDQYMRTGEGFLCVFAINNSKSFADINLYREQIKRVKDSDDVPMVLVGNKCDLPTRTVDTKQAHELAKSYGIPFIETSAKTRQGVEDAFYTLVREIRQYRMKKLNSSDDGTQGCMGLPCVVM
T4 sequence (P62937 whole entry): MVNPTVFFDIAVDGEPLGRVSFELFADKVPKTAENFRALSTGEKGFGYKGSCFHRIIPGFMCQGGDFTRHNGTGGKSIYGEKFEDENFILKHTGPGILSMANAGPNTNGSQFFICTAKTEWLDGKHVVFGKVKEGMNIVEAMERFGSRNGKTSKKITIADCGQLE
KRAS G12V, sequence (P01116 1-169 isoform P01116-2 G12V limits assumed): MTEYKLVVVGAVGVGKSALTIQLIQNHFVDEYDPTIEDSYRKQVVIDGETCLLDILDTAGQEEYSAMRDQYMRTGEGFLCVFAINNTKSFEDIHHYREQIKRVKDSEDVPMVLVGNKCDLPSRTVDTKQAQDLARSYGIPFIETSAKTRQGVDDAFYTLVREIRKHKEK
KRAS G12V, sequence (P62937 whole entry): as the sequence (P62937 whole entry) above
T1 sequence (P01111 whole entry): as the sequence (P01111 whole entry Q61R) above, with R61Q counted along it
T1 sequence (P62937 whole entry): as the sequence (P62937 whole entry) above
T3 sequence (P01111 whole entry G12C): as the sequence (P01111 whole entry Q61R) above, with G12C, R61Q counted along it
T3 sequence (P62937 whole entry): as the sequence (P62937 whole entry) above
T2 sequence (P01111 whole entry Q61K): as the sequence (P01111 whole entry Q61R) above, with R61K counted along it
T2 sequence (P62937 whole entry): as the sequence (P62937 whole entry) above
KRAS G13D, sequence (P01116 1-169 isoform P01116-2 G13D limits assumed): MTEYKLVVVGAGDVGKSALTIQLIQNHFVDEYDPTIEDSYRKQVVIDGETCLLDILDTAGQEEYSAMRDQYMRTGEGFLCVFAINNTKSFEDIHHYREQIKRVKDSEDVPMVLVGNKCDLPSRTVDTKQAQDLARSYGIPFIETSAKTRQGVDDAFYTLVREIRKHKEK
KRAS G13D, sequence (P62937 whole entry): as the sequence (P62937 whole entry) above
KRAS G13C, sequence (P01116 1-169 isoform P01116-2 G13C limits assumed): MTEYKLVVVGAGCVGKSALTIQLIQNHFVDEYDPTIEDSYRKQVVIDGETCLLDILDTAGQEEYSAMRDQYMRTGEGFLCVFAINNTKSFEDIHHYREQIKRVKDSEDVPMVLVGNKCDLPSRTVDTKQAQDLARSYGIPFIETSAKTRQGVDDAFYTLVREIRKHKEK
KRAS G13C, sequence (P62937 whole entry): as the sequence (P62937 whole entry) above
KRAS G12D, sequence (P01116 1-169 isoform P01116-2 G12D limits assumed): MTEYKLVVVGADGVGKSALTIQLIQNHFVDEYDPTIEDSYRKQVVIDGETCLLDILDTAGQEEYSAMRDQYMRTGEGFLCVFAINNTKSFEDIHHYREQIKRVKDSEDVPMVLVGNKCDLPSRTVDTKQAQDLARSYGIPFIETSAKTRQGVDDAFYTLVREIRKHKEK
KRAS G12D, sequence (P62937 whole entry): as the sequence (P62937 whole entry) above
KRAS WT, sequence (P01116 1-169 isoform P01116-2 limits assumed): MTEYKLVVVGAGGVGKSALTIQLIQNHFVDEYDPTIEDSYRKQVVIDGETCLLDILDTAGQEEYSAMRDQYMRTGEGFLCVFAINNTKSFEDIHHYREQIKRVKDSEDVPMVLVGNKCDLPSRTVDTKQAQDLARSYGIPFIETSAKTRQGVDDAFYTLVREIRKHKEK
KRAS WT, sequence (P62937 whole entry): as the sequence (P62937 whole entry) above
KRAS G12C, sequence (P01116 1-169 isoform P01116-2 G12C limits assumed): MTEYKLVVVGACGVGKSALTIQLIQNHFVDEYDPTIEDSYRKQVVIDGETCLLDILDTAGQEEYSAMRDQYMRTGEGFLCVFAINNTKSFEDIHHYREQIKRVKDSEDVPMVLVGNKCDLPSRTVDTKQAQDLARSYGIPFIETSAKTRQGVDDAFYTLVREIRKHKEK
KRAS G12C, sequence (P62937 whole entry): as the sequence (P62937 whole entry) above
KRAS Q61H, sequence (P01116 1-169 isoform P01116-2 Q61H limits assumed): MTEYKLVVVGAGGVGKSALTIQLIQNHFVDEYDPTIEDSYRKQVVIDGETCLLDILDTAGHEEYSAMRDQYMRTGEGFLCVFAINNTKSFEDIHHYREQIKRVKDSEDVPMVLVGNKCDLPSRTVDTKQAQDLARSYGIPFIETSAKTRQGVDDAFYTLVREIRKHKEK
KRAS Q61H, sequence (P62937 whole entry): as the sequence (P62937 whole entry) above
KRAS G12S, sequence (P01116 1-169 isoform P01116-2 G12S limits assumed): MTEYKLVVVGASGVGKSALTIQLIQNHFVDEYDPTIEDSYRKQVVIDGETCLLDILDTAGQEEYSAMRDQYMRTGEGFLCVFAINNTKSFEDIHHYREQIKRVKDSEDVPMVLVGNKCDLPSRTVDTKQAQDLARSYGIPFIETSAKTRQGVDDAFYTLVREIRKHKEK
KRAS G12S, sequence (P62937 whole entry): as the sequence (P62937 whole entry) above

| SMILES | IC50 (NRAS WT; [3]) [µM] | IC50 (NCI-H358 (K-Ras G12C); [4]) [µM] | IC50 (KRAS G12V; [5]) [µM] | IC50 (AsPC-1 (K-Ras G12D) [1]; [6]) [µM] | IC50 (NRAS Q61K; [7]) [µM] | IC50 (KRAS G12S; [8]) [µM] | IC50 (NRAS G12C; [9]) [µM] | IC50 (KRAS G12D; [10]) [µM] | IC50 (KRAS WT; [11]) [µM] | IC50 (KRAS Q61H; [12]) [µM] | IC50 (KRAS G12C; [13]) [µM] | IC50 (NRAS Q61R; [14]) [µM] | IC50 (KRAS G13D; [15]) [µM] | IC50 (KRAS G13C; [16]) [µM] | EC50 (AsPC-1 (K-Ras G12D) [2]; [17]) [µM] | other results |
| --- | --- | --- | --- | --- | --- | --- | --- | --- | --- | --- | --- | --- | --- | --- | --- | --- |
| CCn1c(-c2cccnc2[C@H](C)OC)c2c3cc(ccc31)-c1csc(n1)C[C@H](NC(=O)[C@H](C(C)C)N(C)C(=O)N1CCC[C@@H](N(C)C(=O)[C@H]3CN3)C1)C(=O)N1CCC[C@H](N1)C(=O)OCC(C)(C)C2 (atropisomer, axis not shown) [Compound 289] | 0.01 to 0.1 | 0.01 to 0.1 | 0.1 to 1 | 0.1 to 1 | 0.01 to 0.1 | 0.01 to 0.1 | 0.01 to 0.1 | 0.1 to 1 | 0.01 to 0.1 | 0.01 to 0.1 | 0.01 to 0.1 | 0.01 to 0.1 | 0.1 to 1 | 0.1 to 1 | < 5 |  |
| CCn1c(-c2cccnc2[C@H](C)OC)c2c3cc(ccc31)-c1csc(n1)C[C@H](NC(=O)[C@H](C(C)C)N(C)C(=O)N1CCC[C@H](N(C)C(=O)[C@H]3CN3)C1)C(=O)N1CCC[C@H](N1)C(=O)OCC(C)(C)C2 (atropisomer, axis not shown) [Compound 290] | 0.1 to 1 | 0.01 to 0.1 | 0.1 to 1 | 1 to 10 | 0.1 to 1 | 0.1 to 1 | 0.1 to 1 | 1 to 10 | 0.1 to 1 | 0.1 to 1 | 0.1 to 1 | 0.1 to 1 | 1 to 10 | 0.1 to 1 | < 5 |  |
| CCn1c(-c2cccnc2[C@H](C)OC)c2c3cc(ccc31)-c1csc(n1)C[C@H](NC(=O)[C@H](C(C)C)N(C)C(=O)N1CCC[C@@H](N(C)C(=O)[C@@H]3CN3)C1)C(=O)N1CCC[C@H](N1)C(=O)OCC(C)(C)C2 (atropisomer, axis not shown) [Compound 291] | 0.01 to 0.1 | 0.01 to 0.1 | 0.1 to 1 | 0.1 to 1 | 0.01 to 0.1 | 0.1 to 1 | 0.01 to 0.1 | 0.1 to 1 | 0.01 to 0.1 | 0.01 to 0.1 | 0.01 to 0.1 | 0.1 to 1 | 0.1 to 1 | 0.1 to 1 | < 5 |  |
| CCC(C)N(C)C(=O)c1cncc(-c2c3c4cc(ccc4n2CC)-c2cc(O)cc(c2)C[C@H](NC(=O)[C@H](C(C)C)N(C)C(=O)CN(C)C(=O)[C@H]2CN2)C(=O)N2CCC[C@H](N2)C(=O)OCC(C)(C)C3)c1 (stereo partly drawn) [Compound 144] |  |  |  |  |  |  |  |  |  |  |  |  |  |  |  | IC50 (NRAS WT): 0.1 to 1 µM; IC50 (NCI-H358 (K-Ras G12C); read-out: H358 Cell Viability IC50, NCI-H358, K-Ras G12C, 5-day treatment): 0.01 to 0.1 µM; IC50 (KRAS G12V): 0.1 to 1 µM; IC50 (AsPC-1 (K-Ras G12D) [1]; read-out: AsPC-1 Cell Viability IC50, AsPC-1, K-Ras G12D, 5-day treatment): 0.1 to 1 µM; IC50 (NRAS Q61K): 1 to 10 µM; IC50 (KRAS G12S): 0.1 to 1 µM; IC50 (NRAS G12C; NRAS G12C FRET data IC50, NRAS G12C): 0.01 to 0.1 µM; IC50 (KRAS G12D): 0.1 to 1 µM; IC50 (KRAS WT): 0.1 to 1 µM; IC50 (KRAS Q61H): 0.01 to 0.1 µM; IC50 (KRAS G12C): 0.01 to 0.1 µM; IC50 (NRAS Q61R): 1 to 10 µM; IC50 (KRAS G13D): 0.1 to 1 µM; IC50 (KRAS G13C): 0.01 to 0.1 µM; EC50 (AsPC-1 (K-Ras G12D) [2]; ASPC1, read-out: pERK EC50 (AsPC-1 KRAS G12D)): < 5 µM |
